Experimental data reported in ChEMBL document CHEMBL5724696, “Autophagy assay results for EUbOPEN Chemogenomics Library” (2024).

Tests used:
Type in all cases: functional, Homo sapiens
TERT-RPE1 = assay: (§1) Here: values are normalized to the negative (DMSO; defined as 0% autophagy induction) and positive (250nM Torin1; mTOR inhibitor; defined as maximal inducer of autophagy = 100%) control compounds and represented as % of autophagy induction. […] The impact of autophagy induction on cells is complex and depends on the affected target. As such, the magnitude of a phenotype may not be equally mirrored in the %-value of autophagy induction and vice versa. The dynamics of the induction may indicate the mode of activation: e.g. activation via phosphorylation or a signaling cascade may occur fast, while activation via transcription factors may take considerably longer. […] Of note, treatment concentrations may be sub-optimal for specific compounds, leading to false negative annotations.; settings: Culturing Media DMEM/F12 (1:1), 1 % Penicillin/Streptomycin, 10% Fetal bovin serum Add-On: No, Screening Media Control DMEM/F12 (1:1), Screening Media Samples DMEM/F12 (1:1)
U2OS [1] = assay: as §1; settings: Culturing Media DMEM, 1 % Penicillin/Streptomycin, 10% Fetal bovin serum Add-On: No, Screening Media Control DMEM, Screening Media Samples DMEM
U2OS [2] = assay: as §1; settings: Culturing Media DMEM, 1 % Penicillin/Streptomycin, 10% Fetal bovin serum Add-On: No, Screening Media Control DMEM, Screening Media Samples DMEM; remark: listed apart in the source
[3] = Compound Concentration 0.5 uM, Timepoint 12 hours
[4] = Compound Concentration 0.5 uM, Timepoint 24 hours
[5] = Compound Concentration 0.5 uM, Timepoint 36 hours
[6] = Compound Concentration 0.5 uM, Timepoint 60 hours
[7] = Compound Concentration 2 uM, Timepoint 12 hours
[8] = Compound Concentration 2 uM, Timepoint 24 hours
[9] = Compound Concentration 2 uM, Timepoint 36 hours
[10] = Compound Concentration 2 uM, Timepoint 60 hours
[11] = Compound Concentration 10 uM, Timepoint 12 hours
[12] = Compound Concentration 10 uM, Timepoint 24 hours
[13] = Compound Concentration 10 uM, Timepoint 36 hours
[14] = Compound Concentration 10 uM, Timepoint 60 hours

CC(C)C[C@H](NC(=O)N1CCCCCC1)C(=O)N[C@H](Cc1cn(C)c2ccccc12)C(=O)N[C@H](Cc1ccccn1)C(=O)O
autophagy induction (TERT-RPE1; [3]): -9.746%
autophagy induction (TERT-RPE1; [4]): -10.9738%
autophagy induction (TERT-RPE1; [5]): -11.345%
autophagy induction (TERT-RPE1; [6]): -17.0217%
autophagy induction (TERT-RPE1; [7]): -8.2266%
autophagy induction (TERT-RPE1; [8]): -8.649%
autophagy induction (TERT-RPE1; [9]): -10.3216%
autophagy induction (TERT-RPE1; [10]): -11.9295%
autophagy induction (TERT-RPE1; [11]): -4.458%
autophagy induction (TERT-RPE1; [12]): -5.829%
autophagy induction (TERT-RPE1; [13]): -9.562%
autophagy induction (TERT-RPE1; [14]): -13.6367%
autophagy induction (U2OS [1]; [3]): 0.2891%
autophagy induction (U2OS [1]; [4]): 0.184%
autophagy induction (U2OS [1]; [5]): -1.273%
autophagy induction (U2OS [1]; [6]): 0.7204%
autophagy induction (U2OS [1]; [7]): 2.596%
autophagy induction (U2OS [1]; [8]): 1.655%
autophagy induction (U2OS [1]; [9]): -0.3512%
autophagy induction (U2OS [1]; [10]): -0.2043%
autophagy induction (U2OS [1]; [11]): 5.448%
autophagy induction (U2OS [1]; [12]): 0.3648%
autophagy induction (U2OS [1]; [13]): -0.3169%
autophagy induction (U2OS [1]; [14]): 1.561%
autophagy induction (U2OS [2]; [3]): 4.132%
autophagy induction (U2OS [2]; [4]): 4.485%
autophagy induction (U2OS [2]; [5]): 3.039%
autophagy induction (U2OS [2]; [6]): -0.6751%
autophagy induction (U2OS [2]; [7]): 3.762%
autophagy induction (U2OS [2]; [8]): 6.744%
autophagy induction (U2OS [2]; [9]): 4.273%
autophagy induction (U2OS [2]; [10]): 0.0386%
autophagy induction (U2OS [2]; [11]): 4.084%
autophagy induction (U2OS [2]; [12]): 1.596%
autophagy induction (U2OS [2]; [13]): 3.219%
autophagy induction (U2OS [2]; [14]): 5.8133%

O=C(Nc1ccc(Cl)cc1)Nc1cccc(-c2cccc(N3CCCC3)n2)c1
autophagy induction (TERT-RPE1; [3]): -4.744%
autophagy induction (TERT-RPE1; [4]): -3.44%
autophagy induction (TERT-RPE1; [5]): 1.901%
autophagy induction (TERT-RPE1; [6]): 11.3473%
autophagy induction (TERT-RPE1; [7]): -2.257%
autophagy induction (TERT-RPE1; [8]): -2.102%
autophagy induction (TERT-RPE1; [9]): -2.6063%
autophagy induction (TERT-RPE1; [10]): -0.1832%
autophagy induction (TERT-RPE1; [11]): -0.5349%
autophagy induction (TERT-RPE1; [12]): 20.6675%
autophagy induction (TERT-RPE1; [13]): 44.4615%
autophagy induction (TERT-RPE1; [14]): 64.0305%
autophagy induction (U2OS [1]; [3]): 3.433%
autophagy induction (U2OS [1]; [4]): -0.7352%
autophagy induction (U2OS [1]; [5]): -0.9133%
autophagy induction (U2OS [1]; [6]): -1.608%
autophagy induction (U2OS [1]; [7]): -0.4509%
autophagy induction (U2OS [1]; [8]): -1.587%
autophagy induction (U2OS [1]; [9]): -2.698%
autophagy induction (U2OS [1]; [10]): -2.799%
autophagy induction (U2OS [1]; [11]): -2.177%
autophagy induction (U2OS [1]; [12]): -0.7353%
autophagy induction (U2OS [1]; [13]): -4.281%
autophagy induction (U2OS [1]; [14]): 0.461%
autophagy induction (U2OS [2]; [3]): 17.3616%
autophagy induction (U2OS [2]; [4]): 17.7757%
autophagy induction (U2OS [2]; [5]): 11.2699%
autophagy induction (U2OS [2]; [6]): 1.747%
autophagy induction (U2OS [2]; [7]): 20.6353%
autophagy induction (U2OS [2]; [8]): 15.806%
autophagy induction (U2OS [2]; [9]): 8.553%
autophagy induction (U2OS [2]; [10]): 8.133%
autophagy induction (U2OS [2]; [11]): -2.269%
autophagy induction (U2OS [2]; [12]): 13.0876%
autophagy induction (U2OS [2]; [13]): 22.7984%
autophagy induction (U2OS [2]; [14]): 31.1337%

CN(C(=O)Cc1ccc(Cl)c(Cl)c1)C(CN1CCCC1)c1cccc(OCC(=O)O)c1.Cl (stereo not drawn)
autophagy induction (TERT-RPE1; [3]): -10.9051%
autophagy induction (TERT-RPE1; [4]): -12.2301%
autophagy induction (TERT-RPE1; [5]): -15.6398%
autophagy induction (TERT-RPE1; [6]): -20.341%
autophagy induction (TERT-RPE1; [7]): -5.691%
autophagy induction (TERT-RPE1; [8]): -6.772%
autophagy induction (TERT-RPE1; [9]): -9.058%
autophagy induction (TERT-RPE1; [10]): -11.2679%
autophagy induction (TERT-RPE1; [11]): -5.196%
autophagy induction (TERT-RPE1; [12]): -4.57%
autophagy induction (TERT-RPE1; [13]): -3.728%
autophagy induction (TERT-RPE1; [14]): -2.992%
autophagy induction (U2OS [1]; [3]): -12.8922%
autophagy induction (U2OS [1]; [4]): -7.849%
autophagy induction (U2OS [1]; [5]): -3.698%
autophagy induction (U2OS [1]; [6]): -1.542%
autophagy induction (U2OS [1]; [7]): -9.267%
autophagy induction (U2OS [1]; [8]): -3.553%
autophagy induction (U2OS [1]; [9]): -1.479%
autophagy induction (U2OS [1]; [10]): -2.0456%
autophagy induction (U2OS [1]; [11]): -0.2023%
autophagy induction (U2OS [1]; [12]): 1.762%
autophagy induction (U2OS [1]; [13]): 0.1182%
autophagy induction (U2OS [1]; [14]): 0.3636%
autophagy induction (U2OS [2]; [3]): 2.144%
autophagy induction (U2OS [2]; [4]): -2.707%
autophagy induction (U2OS [2]; [5]): 1.07%
autophagy induction (U2OS [2]; [6]): 1.175%
autophagy induction (U2OS [2]; [7]): -9.959%
autophagy induction (U2OS [2]; [8]): -4.957%
autophagy induction (U2OS [2]; [9]): -10.0899%
autophagy induction (U2OS [2]; [10]): -9.274%
autophagy induction (U2OS [2]; [11]): -7.228%
autophagy induction (U2OS [2]; [12]): -6.505%
autophagy induction (U2OS [2]; [13]): 0.1565%
autophagy induction (U2OS [2]; [14]): 0.07233%
